Laboratory results: patent publication US20250345392A1, “ANNEXIN A1 LIQUID PHARMACEUTICAL COMPOSITION” (ResoTher Pharma A/S, priority 2022, published 2025)
Read-outs that look alike come from different tables or passages of the source. Ends that are not written are not given here.

Experiment: 14-day repeat IV dose toxicity study with toxicokinetic evaluation on Day 1 and 14 in dogs
Assay type: in vivo, beagle dogs
Details: dog; for C0 / AUC(0-inf) / clearance / half-life / Vd: in vivo
Protocol: Peptide 1 in blood samples collected from animals used in the studies (rat and dog) has been measured by an LC-MS/MS method. Analysis of samples collected in the pharmacokinetic study in rats was performed prior to validation of the method. Prior to analysis of samples from the GLP toxicology studies, the method was validated according to GLP to ensure that it is selective, accurate, reproducible, and able to produce reliable results. The method was validated over the range from 0.075 to 25 μg/mL Peptide 1.
In the 14-day intravenous toxicity study in beagle dogs (see study description below), samples were collected from 3 male and 3 female animals per group dosed at 0 (Control), 1, 3 or 10 mg/kg/day at 2, 5, 10, 20 and 40 minutes after dosing on Days 1 and 14. Samples were analysed for levels of Peptide 1.

For “AMVSEFLKQAWFIENEEQEYVQTLKSSKGGPGSAVSPYPTFNPSSDV-NH2 [Peptide 1]”, the “exposure (C(0) and AUCinf) versus dose” value (from 1 mg/kg to 10 mg/kg) was “increase proportional to dose level”, the C0 (1 mg/kg, Group 2 (1 mg/kg), range over sexes and Days 1 and 14) was 4580 to 8580 ng/mL and the AUC(0-inf) (1 mg/kg, Group 2 (1 mg/kg), range over sexes and Days 1 and 14, read-out: AUCinf) was 450 to 620 ng·h/mL. It also gave a C0 (3 mg/kg, Group 3 (3 mg/kg), range over sexes and Days 1 and 14) of 12500 to 20000 ng/mL, an AUC(0-inf) (3 mg/kg, Group 3 (3 mg/kg), range over sexes and Days 1 and 14, read-out: AUCinf) of 1420 to 1970 ng·h/mL and a C0 (10 mg/kg, Group 4 (10 mg/kg), range over sexes and Days 1 and 14) of 26400 to 58300 ng/mL. For the same substance, the AUC(0-inf) (10 mg/kg, Group 4 (10 mg/kg), range over sexes and Days 1 and 14, read-out: AUCinf) was 3930 to 4680 ng·h/mL, the clearance (all groups, read-out: clearance) was 27.4 to 42.7 mL/min/kg and the half-life (all groups, read-out: elimination half-life) was 4.66 to 6.59 min. The C0 (iv, 1 mg/kg/day, IV 1.0 mg/kg/day, female, Day 1) was 6990 ng/mL, the AUC(0-inf) (iv, 1 mg/kg/day, IV 1.0 mg/kg/day, female, Day 1, read-out: AUC0-∞ (converted)) was 537 ng·h/mL and the clearance (iv, 1 mg/kg/day, IV 1.0 mg/kg/day, female, Day 1, read-out: Cl) was 33.1 mL/min/kg. For the same substance, the half-life (iv, 1 mg/kg/day, IV 1.0 mg/kg/day, female, Day 1, read-out: T1/2) was 4.83 min, the Vd (iv, 1 mg/kg/day, IV 1.0 mg/kg/day, female, Day 1, read-out: Vz) was 0.232 L/kg and the C0 (iv, 1 mg/kg/day, IV 1.0 mg/kg/day, female, Day 14) was 8580 ng/mL. The AUC(0-inf) (iv, 1 mg/kg/day, IV 1.0 mg/kg/day, female, Day 14, read-out: AUC0-∞ (converted)) was 620 ng·h/mL, the clearance (iv, 1 mg/kg/day, IV 1.0 mg/kg/day, female, Day 14, read-out: Cl) was 27.4 mL/min/kg and the half-life (iv, 1 mg/kg/day, IV 1.0 mg/kg/day, female, Day 14, read-out: T1/2) was 4.66 min. For the same substance, the Vd (iv, 1 mg/kg/day, IV 1.0 mg/kg/day, female, Day 14, read-out: Vz) was 0.183 L/kg, the C0 (iv, 1 mg/kg/day, IV 1.0 mg/kg/day, male, Day 1) was 4580 ng/mL and the AUC(0-inf) (iv, 1 mg/kg/day, IV 1.0 mg/kg/day, male, Day 1, read-out: AUC0-∞ (converted)) was 450 ng·h/mL. For the same substance, the clearance (iv, 1 mg/kg/day, IV 1.0 mg/kg/day, male, Day 1, read-out: Cl) was 37.1 mL/min/kg, the half-life (iv, 1 mg/kg/day, IV 1.0 mg/kg/day, male, Day 1, read-out: T1/2) was 4.68 min and the Vd (iv, 1 mg/kg/day, IV 1.0 mg/kg/day, male, Day 1, read-out: Vz) was 0.251 L/kg. The C0 (iv, 1 mg/kg/day, IV 1.0 mg/kg/day, male, Day 14) was 6590 ng/mL, the AUC(0-inf) (iv, 1 mg/kg/day, IV 1.0 mg/kg/day, male, Day 14, read-out: AUC0-∞ (converted)) was 550 ng·h/mL and the clearance (iv, 1 mg/kg/day, IV 1.0 mg/kg/day, male, Day 14, read-out: Cl) was 31 mL/min/kg. For the same substance, the half-life (iv, 1 mg/kg/day, IV 1.0 mg/kg/day, male, Day 14, read-out: T1/2) was 6.59 min, the Vd (iv, 1 mg/kg/day, IV 1.0 mg/kg/day, male, Day 14, read-out: Vz) was 0.297 L/kg and the C0 (iv, 3 mg/kg/day, IV 3.0 mg/kg/day, female, Day 1) was 16100 ng/mL. It also gave an AUC(0-inf) (iv, 3 mg/kg/day, IV 3.0 mg/kg/day, female, Day 1, read-out: AUC0-∞ (converted)) of 1700 ng·h/mL, a clearance (iv, 3 mg/kg/day, IV 3.0 mg/kg/day, female, Day 1, read-out: Cl) of 30.1 mL/min/kg and a half-life (iv, 3 mg/kg/day, IV 3.0 mg/kg/day, female, Day 1, read-out: T1/2) of 5.7 min. For the same substance, the Vd (iv, 3 mg/kg/day, IV 3.0 mg/kg/day, female, Day 1, read-out: Vz) was 0.248 L/kg, the C0 (iv, 3 mg/kg/day, IV 3.0 mg/kg/day, female, Day 14) was 20000 ng/mL and the AUC(0-inf) (iv, 3 mg/kg/day, IV 3.0 mg/kg/day, female, Day 14, read-out: AUC0-∞ (converted)) was 1970 ng·h/mL. The clearance (iv, 3 mg/kg/day, IV 3.0 mg/kg/day, female, Day 14, read-out: Cl) was 25.9 mL/min/kg, the half-life (iv, 3 mg/kg/day, IV 3.0 mg/kg/day, female, Day 14, read-out: T1/2) was 6.13 min and the Vd (iv, 3 mg/kg/day, IV 3.0 mg/kg/day, female, Day 14, read-out: Vz) was 0.232 L/kg. For the same substance, the C0 (iv, 3 mg/kg/day, IV 3.0 mg/kg/day, male, Day 1) was 12500 ng/mL, the AUC(0-inf) (iv, 3 mg/kg/day, IV 3.0 mg/kg/day, male, Day 1, read-out: AUC0-∞ (converted)) was 1420 ng·h/mL and the clearance (iv, 3 mg/kg/day, IV 3.0 mg/kg/day, male, Day 1, read-out: Cl) was 35.9 mL/min/kg. It also gave a half-life (iv, 3 mg/kg/day, IV 3.0 mg/kg/day, male, Day 1, read-out: T1/2) of 6.01 min, a Vd (iv, 3 mg/kg/day, IV 3.0 mg/kg/day, male, Day 1, read-out: Vz) of 0.318 L/kg and a C0 (iv, 3 mg/kg/day, IV 3.0 mg/kg/day, male, Day 14) of 19900 ng/mL. The AUC(0-inf) (iv, 3 mg/kg/day, IV 3.0 mg/kg/day, male, Day 14, read-out: AUC0-∞ (converted)) was 1850 ng·h/mL, the clearance (iv, 3 mg/kg/day, IV 3.0 mg/kg/day, male, Day 14, read-out: Cl) was 27.4 mL/min/kg and the half-life (iv, 3 mg/kg/day, IV 3.0 mg/kg/day, male, Day 14, read-out: T1/2) was 6.05 min. It also gave a Vd (iv, 3 mg/kg/day, IV 3.0 mg/kg/day, male, Day 14, read-out: Vz) of 0.238 L/kg, a C0 (iv, 10 mg/kg/day, IV 10 mg/kg/day, female, Day 1) of 53400 ng/mL and an AUC(0-inf) (iv, 10 mg/kg/day, IV 10 mg/kg/day, female, Day 1, read-out: AUC0-∞ (converted)) of 4550 ng·h/mL. It also gave a clearance (iv, 10 mg/kg/day, IV 10 mg/kg/day, female, Day 1, read-out: Cl) of 37.1 mL/min/kg, a half-life (iv, 10 mg/kg/day, IV 10 mg/kg/day, female, Day 1, read-out: T1/2) of 5.41 min and a Vd (iv, 10 mg/kg/day, IV 10 mg/kg/day, female, Day 1, read-out: Vz) of 0.288 L/kg. It also gave a C0 (iv, 10 mg/kg/day, IV 10 mg/kg/day, female, Day 14) of 58300 ng/mL, an AUC(0-inf) (iv, 10 mg/kg/day, IV 10 mg/kg/day, female, Day 14, read-out: AUC0-∞ (converted)) of 4570 ng·h/mL and a clearance (iv, 10 mg/kg/day, IV 10 mg/kg/day, female, Day 14, read-out: Cl) of 36.7 mL/min/kg. The half-life (iv, 10 mg/kg/day, IV 10 mg/kg/day, female, Day 14, read-out: T1/2) was 5.9 min, the Vd (iv, 10 mg/kg/day, IV 10 mg/kg/day, female, Day 14, read-out: Vz) was 0.312 L/kg and the C0 (iv, 10 mg/kg/day, IV 10 mg/kg/day, male, Day 1) was 26400 ng/mL. For the same substance, the AUC(0-inf) (iv, 10 mg/kg/day, IV 10 mg/kg/day, male, Day 1, read-out: AUC0-∞ (converted)) was 3930 ng·h/mL, the clearance (iv, 10 mg/kg/day, IV 10 mg/kg/day, male, Day 1, read-out: Cl) was 42.7 mL/min/kg and the half-life (iv, 10 mg/kg/day, IV 10 mg/kg/day, male, Day 1, read-out: T1/2) was 5.09 min. The Vd (iv, 10 mg/kg/day, IV 10 mg/kg/day, male, Day 1, read-out: Vz) was 0.318 L/kg, the C0 (iv, 10 mg/kg/day, IV 10 mg/kg/day, male, Day 14) was 51400 ng/mL and the AUC(0-inf) (iv, 10 mg/kg/day, IV 10 mg/kg/day, male, Day 14, read-out: AUC0-∞ (converted)) was 4680 ng·h/mL. The clearance (iv, 10 mg/kg/day, IV 10 mg/kg/day, male, Day 14, read-out: Cl) was 36.6 mL/min/kg, the half-life (iv, 10 mg/kg/day, IV 10 mg/kg/day, male, Day 14, read-out: T1/2) was 6 min and the Vd (iv, 10 mg/kg/day, IV 10 mg/kg/day, male, Day 14, read-out: Vz) was 0.316 L/kg.
